Values of other authors in paper PMC10275055, “Preventing recurrence in Sonic Hedgehog Subgroup Medulloblastoma using the OLIG2 inhibitor CT-179” (Research Square, 2023).

Tested on: OLIG2 dimerization and DNA binding
Design: method as in PMID 26517684, PMID 31953259
Conditions: cited from earlier work

SMILES: CCN1CCCC(Nc2cc(C)nc(/N=C(\N)Nc3ccc(Cl)c(Cl)c3)n2)C1 (stereo not shown) [SKOG102]
- effect on OLIG2 dimerization and DNA binding: disrupts OLIG2 dimerization and DNA binding
